How the values were obtained:
14-3-3σ = molecular target: T1, 14-3-3σ (Homo sapiens, UniProt P31947); assay: Intact mass spectrometry assay, apo (no peptide); assay type: binding; parameters: full-length for mass spectrometry and fluorescence anisotropy assays; made in house; host or cells: E. coli Rosetta 2(DE3)pLysS, pPROEX HTb vector; conditions: 1 μM compound, 100 nM 14-3-3σ
T1 sequence (P31947 1-248): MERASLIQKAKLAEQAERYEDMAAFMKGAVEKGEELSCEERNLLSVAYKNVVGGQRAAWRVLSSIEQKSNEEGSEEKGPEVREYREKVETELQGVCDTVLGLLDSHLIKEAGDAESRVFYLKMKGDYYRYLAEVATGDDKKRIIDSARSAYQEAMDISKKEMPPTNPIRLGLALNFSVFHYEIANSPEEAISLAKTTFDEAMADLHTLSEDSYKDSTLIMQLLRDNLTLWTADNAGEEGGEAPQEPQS
Protocol: (§1) In analogy to our previous work, two orthogonal assays were used for screening (Figure S2). […] Dose responses of compounds were performed in the absence and presence of the C-RAF259 phospho-peptide to distinguish between neutral binders and cooperative molecular glues. The experiment was performed as a time course, with measurements every 8 h, after an 1 h incubation. Additionally, the compounds were tested in a fluorescence anisotropy (FA) assay in the presence of the 5-carboxyfluorescein-(FAM)-labeled C-RAF259 peptide. […] The full dose–response data for all compounds are available in the SI (Tables S2–S5, Figures S5–S8, Figures S15–S18, Figures S25–S32, Figures S37–S39). The dose–response data from both assays were also visually compared in the form of bar graphs. […] For FA experiments, the EC50 values from the overnight measurement were calculated and plotted as bar graphs showing the […] log EC50 value (pEC50). Compounds acting as MGs were expected to show increases in both types of bar graphs.
(§2) transferred in the assay plates.
(§3) The reacton mixtures were incubated
(§4) dispensed in the assay plates.
(§5) incubaton at room temperature .

14-3-3σ/C-RAF259 [1] = molecular target: T2, 14-3-3σ/C-RAF259 (Homo sapiens, UniProt P31947); assay: FA protein titration, C-RAF259 peptide; conditions: appKd DMSO / appKd compound
14-3-3σ/C-RAF259 [2] = molecular target: T2, 14-3-3σ/C-RAF259; assay: Fluorescence anisotropy (FA) compound titration; assay type: binding; conditions: 10 nM C-RAF259-FAM 10-mer, 5 μΜ 14-3-3σ, overnight; for EC50: read-out: Compound titrations EC50 value C-RAF259
Protocol: as §1, §2, §3, §4, §5

14-3-3σ/C-RAF259 [3] = molecular target: T2, 14-3-3σ/C-RAF259; assay: Intact mass spectrometry assay with C-RAF259 phospho-peptide; assay type: binding; parameters: full-length for mass spectrometry and fluorescence anisotropy assays; made in house; host or cells: E. coli Rosetta 2(DE3)pLysS (14-3-3σ); peptides from Elim Biopharmaceuticals; conditions: 1 μM compound, 100 nM 14-3-3σ, 18 µM peptide
Protocol: as §1, §2, §3, §4, §5

Row | % bound, APO, 1h (14-3-3σ) | % bound, APO, 8h (14-3-3σ) | % bound, APO, 16h (14-3-3σ) | % bound, APO, 24h (14-3-3σ) | Fold stabilization (100 µM compound), C-RAF259 (10mer) (14-3-3σ/C-RAF259 [1]) | EC50 (14-3-3σ/C-RAF259 [2]) | % bound, C-RAF259 (11mer), 1h (14-3-3σ/C-RAF259 [3]) | % bound, C-RAF259 (11mer), 8h (14-3-3σ/C-RAF259 [3]) | % bound, C-RAF259 (11mer), 16h (14-3-3σ/C-RAF259 [3]) | % bound, C-RAF259 (11mer), 24h (14-3-3σ/C-RAF259 [3]) | Compound titrations EC50 value C-RAF259 (14-3-3σ/C-RAF259 [2]) | Compound
1 | 0% | 1.5% | 4.7% | 6.9% | 4 fold | 17 ± 3 µM | 6.9% | 15% | 26% | 50.3% |  | O=C(CCl)NCC1CCN(S(=O)(=O)c2ccc(F)cc2)CC1 [Compound 11]
2 | 1% | 1.5% | 2.9% | 4.3% | 22 fold | 3 ± 1 µM | 12.1% | 32.8% | 47.8% | 64.4% |  | O=C(CCl)NCC1CCN(S(=O)(=O)c2ccc(Cl)cc2)CC1 [Compound 12]
3 | 0% | 0.9% | 6.5% | 12.7% | 15 fold | 17 ± 1 µM | 8.2% | 17.9% | 28.4% | 46.8% |  | O=C(CCl)NCC1CCN(S(=O)(=O)c2ccc(C(F)(F)F)cc2)CC1 [Compound 18]
4 | 0% | 0.5% | 2.5% | 6.5% | 14 fold | 13 ± 3 µM | 20.5% | 41.3% | 69.5% | 91.3% |  | O=C(CCl)NCC1CCN(S(=O)(=O)c2ccc(OC(F)(F)F)cc2)CC1 [Compound 19]
5 |  | 2.9% | 4.4% | 7.4% | 9 fold | 5 ± 1 µM | 2.9% | 6.5% | 10.7% | 32.2% |  | O=Cc1ccc(S(=O)(=O)N2CCC(CNC(=O)CCl)CC2)cc1 [Compound 21]
6 | 0% | 0.5% | 0.5% | 1.5% | 21 fold | 14 ± 1 µM | 7.3% | 13.7% | 26.7% | 51.8% |  | Cc1ccc(S(=O)(=O)N2CCC(CNC(=O)CCl)CC2)cc1 [Compound 24]
7 | 1% | 2.5% | 6.5% | 22.5% | 3 fold | 12 ± 2 µM | 11% | 24.8% | 41.8% | 60.3% |  | O=C(CCl)NCC1CCN(S(=O)(=O)c2ccc(F)c(Cl)c2)CC1 [Compound 30]
8 | 0.9% | 1.9% | 2.5% | 3.8% | 2 fold | 8 ± 1 µM |  | 38.1% | 59.1% | 81.4% |  | O=C(CCl)NCC1CCN(S(=O)(=O)c2ccc(Cl)c(C(F)(F)F)c2)CC1 [Compound 31]
9 | 0% | 0% | 0.9% | 0.9% | 13 fold | 9 ± 1 µM | 7.7% | 18.5% | 31.8% | 50.3% |  | COc1ccc(S(=O)(=O)N2CCC(CNC(=O)CCl)CC2)cc1F [Compound 33]
10 | 0% | 0.9% | 2.9% | 4.5% | 18 fold | 25 ± 2 µM | 20.6% | 41.1% | 69.5% | 91.7% |  | O=C(CCl)NCC1CCN(S(=O)(=O)c2ccc(Br)cc2F)CC1 [Compound 36]
11 | 2.9% | 11.3% | 18.5% | 28.6% |  | 94 ± 9 µM | 25% | 45.1% | 64.3% | 80.2% |  | O=C(CCl)N1CC2(CCN(S(=O)(=O)c3ccc(Br)c(F)c3)CC2(F)F)C1 [Compound 52]
12 | 0% | 0.9% | 1.9% | 7.4% |  | > 1000 µM | 6.1% | 9.9% | 20.6% | 34.6% |  | O=C(CCl)NC1CC2(CCN(S(=O)(=O)c3ccc(Br)c(F)c3)CC2)C1 [Compound 55]
13 | 5.2% | 13.3% | 21.8% | 36.8% |  | 78 ± 7 µM | 37.1% | 68% | 80.9% | 83.3% |  | O=C(CCl)N1CC2CCC1CC2NS(=O)(=O)c1ccc(Br)c(F)c1 (stereo not drawn) [Compound 61]
14 | 2.9% | 9.1% | 15.9% | 23% |  | 14 ± 1 µM | 15% | 30.4% | 55.6% | 81.5% |  | O=C(CCl)N1CC2(CC(NS(=O)(=O)c3ccc(Br)c(F)c3)CO2)C1 (stereo not drawn) [Compound 67]
15 | 0% | 1.5% | 1.5% | 3.8% |  | > 1000 µM | 1.9% | 2.9% | 12.1% | 31% |  | O=C(CCl)NCc1ccc(NS(=O)(=O)c2ccc(Br)c(F)c2)cc1 [Compound 73]
16 | 0% | 0% | 0% | 0% |  | > 1000 µM | 0% | 0% | 0% | 4.7% | completely inactive | O=C(C(Cl)Cl)N1CC2(CCN(S(=O)(=O)c3ccc(Br)c(F)c3)CC2(F)F)C1 [Compound 74]
17 | 0% | 0% | 0% | 0% |  | > 1000 µM | 0% | 0% | 0% | 2.9% | completely inactive | C=C(F)C(=O)N1CC2(CCN(S(=O)(=O)c3ccc(Br)c(F)c3)CC2(F)F)C1 [Compound 75]
18 | 5.6% | 14.5% | 36.2% | 53.9% |  | > 250 µM | 43% | 65.8% | 82% |  |  | O=C(CCl)N1CC[C@]2(CCN(S(=O)(=O)c3ccc(Br)c(F)c3)C2)C1 [Compound 89]

Source: article PMC12903857
